# From patent US10945932B2, “Prebiotic oral care compositions containing carboxylic acids” (COLGATE-PALMOLIVE COMPANY, priority 2013, dated 2021)
# What was measured:
# Test in all cases: Biofilm growth assay in BHI, crystal violet
# Format in all cases: cell-based
# [1] = system: Actinomyces naeslundii; details: A naeslundii
# Experimental: (§1) Late exponential growth phase liquid cultures were prepared by transferring the respective bacterium from blood agar plates to BHI and overnight incubation at 37° C. in an anaerobic atmosphere for A. viscosus, V. parvula, F. nucleatum, P. gingivalis, P. intermedia, T. forsythia, A. naeslundii, and C. sputigena, and in a 5% CO2 environment for S. salivarius, S. sanguinis, S. mitis, A. actinomycetemcomitans, S. mutans, and S. gordonii. […] Additionally, for each bacterium tested, a background control, to correct for background staining, was added. This background control contained the bacterium tested and 0.03 weight % chlorhexidine, as an antiseptic. Plates were incubated as previously described. After 48 hrs the supernatant was removed from the wells of the plates. The wells were washed twice with 1×100 μL/PBS (phosphate buffered saline), fixed for 20 minutes with 96% vol. ethanol (96% vol. solution in water) and the biofilm retained at the bottom of the wells was stained with 1 weight % crystal violet (1 weight % solution in water). […] Quantification of the stained biofilm was performed by measuring the absorbance at 630 nm using a Multiskan Ascent microplate reader (Thermo Scientific).
# [2] = system: Actinomyces viscosus; details: A viscosus
# Experimental: as §1
# [3] = system: Aggregatibacter actinomycetemcomitans; details: A actinomycetemcomitans
# Experimental: as §1
# [4] = system: Capnocytophaga sputigena; details: C sputigena
# Experimental: as §1
# [5] = system: Fusobacterium nucleatum; details: F nucleatum
# Experimental: as §1
# [6] = system: Porphyromonas gingivalis; details: P gingivalis
# Experimental: as §1
# [7] = system: Prevotella intermedia; details: P intermedia
# Experimental: as §1
# [8] = system: Streptococcus gordonii; details: S gordonii
# Experimental: as §1
# [9] = system: Streptococcus mitis; details: S mitis
# Experimental: as §1
# [10] = system: Streptococcus mutans; details: S mutans
# Experimental: as §1
structure (smiles),measurement,setting,value
"O=C(O)CCC(=O)O [Succinic acid, succinic acid]","biofilm growth, OD at 630 nm (crystal violet) at 48 hrs divided by OD of control (control = 1)",[1]; 5 μmol/ml,0.7746
same,"biofilm growth, OD at 630 nm (crystal violet) at 48 hrs divided by OD of control (control = 1)",[1]; 10 μmol/ml,0.2490
same,"biofilm growth, OD at 630 nm (crystal violet) at 48 hrs divided by OD of control (control = 1)",[1]; 20 μmol/ml,0.0240
same,"biofilm growth, OD at 630 nm (crystal violet) at 48 hrs divided by OD of control (control = 1)",[1]; 25 μmol/ml,0.0182
same,"biofilm growth, OD at 630 nm (crystal violet) at 48 hrs divided by OD of control (control = 1)",[2]; 5 μmol/ml,0.3969
same,"biofilm growth, OD at 630 nm (crystal violet) at 48 hrs divided by OD of control (control = 1)",[2]; 10 μmol/ml,0.3190
same,"biofilm growth, OD at 630 nm (crystal violet) at 48 hrs divided by OD of control (control = 1)",[2]; 20 μmol/ml,0.0498
same,"biofilm growth, OD at 630 nm (crystal violet) at 48 hrs divided by OD of control (control = 1)",[2]; 25 μmol/ml,0.0622
same,"biofilm growth, OD at 630 nm (crystal violet) at 48 hrs divided by OD of control (control = 1)",[3]; 5 μmol/ml,0.6941
same,"biofilm growth, OD at 630 nm (crystal violet) at 48 hrs divided by OD of control (control = 1)",[3]; 10 μmol/ml,0.5093
same,"biofilm growth, OD at 630 nm (crystal violet) at 48 hrs divided by OD of control (control = 1)",[3]; 20 μmol/ml,0.0593
same,"biofilm growth, OD at 630 nm (crystal violet) at 48 hrs divided by OD of control (control = 1)",[3]; 25 μmol/ml,0.0581
same,"biofilm growth, OD at 630 nm (crystal violet) at 48 hrs divided by OD of control (control = 1)",[4]; 5 μmol/ml,2.0880
same,"biofilm growth, OD at 630 nm (crystal violet) at 48 hrs divided by OD of control (control = 1)",[4]; 10 μmol/ml,2.1577
same,"biofilm growth, OD at 630 nm (crystal violet) at 48 hrs divided by OD of control (control = 1)",[4]; 20 μmol/ml,0.2256
same,"biofilm growth, OD at 630 nm (crystal violet) at 48 hrs divided by OD of control (control = 1)",[4]; 25 μmol/ml,0.3202
same,"biofilm growth, OD at 630 nm (crystal violet) at 48 hrs divided by OD of control (control = 1)",[5]; 5 μmol/ml,2.7146
same,"biofilm growth, OD at 630 nm (crystal violet) at 48 hrs divided by OD of control (control = 1)",[5]; 10 μmol/ml,5.3887
same,"biofilm growth, OD at 630 nm (crystal violet) at 48 hrs divided by OD of control (control = 1)",[5]; 20 μmol/ml,0.5404
same,"biofilm growth, OD at 630 nm (crystal violet) at 48 hrs divided by OD of control (control = 1)",[5]; 25 μmol/ml,0.1087
same,"biofilm growth, OD at 630 nm (crystal violet) at 48 hrs divided by OD of control (control = 1)",[6]; 5 μmol/ml,1.0520
same,"biofilm growth, OD at 630 nm (crystal violet) at 48 hrs divided by OD of control (control = 1)",[6]; 10 μmol/ml,1.0031
same,"biofilm growth, OD at 630 nm (crystal violet) at 48 hrs divided by OD of control (control = 1)",[6]; 20 μmol/ml,0.1065
same,"biofilm growth, OD at 630 nm (crystal violet) at 48 hrs divided by OD of control (control = 1)",[6]; 25 μmol/ml,0.1691
same,"biofilm growth, OD at 630 nm (crystal violet) at 48 hrs divided by OD of control (control = 1)",[7]; 5 μmol/ml,0.8344
same,"biofilm growth, OD at 630 nm (crystal violet) at 48 hrs divided by OD of control (control = 1)",[7]; 10 μmol/ml,0.7023
same,"biofilm growth, OD at 630 nm (crystal violet) at 48 hrs divided by OD of control (control = 1)",[7]; 20 μmol/ml,0.0589
same,"biofilm growth, OD at 630 nm (crystal violet) at 48 hrs divided by OD of control (control = 1)",[7]; 25 μmol/ml,0.1442
same,"biofilm growth, OD at 630 nm (crystal violet) at 48 hrs divided by OD of control (control = 1)",[8]; 5 μmol/ml,2.3866
same,"biofilm growth, OD at 630 nm (crystal violet) at 48 hrs divided by OD of control (control = 1)",[8]; 10 μmol/ml,4.4978
same,"biofilm growth, OD at 630 nm (crystal violet) at 48 hrs divided by OD of control (control = 1)",[8]; 20 μmol/ml,1.6591
same,"biofilm growth, OD at 630 nm (crystal violet) at 48 hrs divided by OD of control (control = 1)",[8]; 25 μmol/ml,0.5512
same,"biofilm growth, OD at 630 nm (crystal violet) at 48 hrs divided by OD of control (control = 1)",[9]; 5 μmol/ml,0.1603
same,"biofilm growth, OD at 630 nm (crystal violet) at 48 hrs divided by OD of control (control = 1)",[9]; 10 μmol/ml,0.1188
same,"biofilm growth, OD at 630 nm (crystal violet) at 48 hrs divided by OD of control (control = 1)",[9]; 20 μmol/ml,0.0851
same,"biofilm growth, OD at 630 nm (crystal violet) at 48 hrs divided by OD of control (control = 1)",[9]; 25 μmol/ml,0.1085
same,"biofilm growth, OD at 630 nm (crystal violet) at 48 hrs divided by OD of control (control = 1)",[10]; 5 μmol/ml,0.0053
same,"biofilm growth, OD at 630 nm (crystal violet) at 48 hrs divided by OD of control (control = 1)",[10]; 10 μmol/ml,0.2498
same,"biofilm growth, OD at 630 nm (crystal violet) at 48 hrs divided by OD of control (control = 1)",[10]; 20 μmol/ml,1.9127
same,"biofilm growth, OD at 630 nm (crystal violet) at 48 hrs divided by OD of control (control = 1)",[10]; 25 μmol/ml,0.9686
